Results from ChEMBL document CHEMBL5550169, “A consensus reverse docking approach for identification of a competitive inhibitor of acetyltransferase enhanced intracellular survival protein from Mycobacterium tuberculosis” (Bioorg Med Chem, 2024).
In brackets after ≈: the same amount, converted by molar mass.

T1: N-acetyltransferase Eis (Mycobacterium tuberculosis (strain ATCC 25618 / H37Rv), UniProt P9WFK7)
T1 sequence (P9WFK7 whole entry): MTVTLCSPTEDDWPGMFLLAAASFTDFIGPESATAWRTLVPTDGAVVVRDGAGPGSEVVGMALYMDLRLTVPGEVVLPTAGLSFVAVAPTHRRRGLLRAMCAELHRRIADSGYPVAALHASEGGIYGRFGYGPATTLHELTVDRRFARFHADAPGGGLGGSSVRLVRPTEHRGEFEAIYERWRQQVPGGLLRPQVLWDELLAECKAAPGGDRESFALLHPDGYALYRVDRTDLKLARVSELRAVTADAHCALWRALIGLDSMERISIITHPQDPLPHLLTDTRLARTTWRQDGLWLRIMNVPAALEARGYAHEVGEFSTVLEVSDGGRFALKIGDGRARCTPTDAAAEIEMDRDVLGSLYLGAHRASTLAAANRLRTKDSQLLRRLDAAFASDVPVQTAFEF

T2: N-acetyltransferase Eis (Mycobacterium tuberculosis (strain ATCC 25618 / H37Rv)) (UniProt P9WFK7)
T2 sequence (whole entry): T1 sequence (P9WFK7 whole entry)

B1: N-acetyltransferase Eis (Mycobacterium tuberculosis (strain ATCC 25618 / H37Rv)), P9WFK7 (protein)
chain: T1 sequence (P9WFK7 whole entry)

Legend:
[1] = test system: Mycobacterium tuberculosis; assay: Antibacterial activity against Mycobacterium tuberculosis H37Ra measured after 7 days by resazurin reduction microplate assay; format: functional; details: 168 h, time 7 day
[2] = test system: Mycobacterium tuberculosis; assay: Antibacterial activity against Mycobacterium tuberculosis IAR2 assessed as reduction in pellet formation measured after 7 to 14 days by alamar blue assay; format: functional; details: time 7-14 day
[3] = test system: Mycobacterium tuberculosis; assay: Antibacterial activity against Mycobacterium tuberculosis H37Rv assessed as reduction in pellet formation measured after 7 to 14 days by alamar blue assay; format: functional; details: time 7-14 day
[4] = molecular target: T1, N-acetyltransferase Eis; assay: Inhibition of Mycobacterium tuberculosis H37Rv Eis protein using kanamycin as substrate preincubated for 10 mins followed by AcCoA addition and measured every 30 secs for 20 mins
[5] = test system: Mycobacterium tuberculosis; assay: Additive antibacterial activity against Mycobacterium tuberculosis H37Ra assessed as ethambutol MIC at 3 to 50 uM measured after 7 days by resazurin reduction microplate assay based checkerboard assay; format: functional; details: 168 h, dose 3-50 µM, time 7 day
[6] = test system: Mycobacterium tuberculosis; assay: Additive antibacterial activity against Mycobacterium tuberculosis H37Ra assessed as isoniazid MIC at 3 to 50 uM measured after 7 days by resazurin reduction microplate assay based checkerboard assay; format: functional; details: 168 h, dose 3-50 µM, time 7 day
[7] = test system: Mycobacterium tuberculosis; assay: Additive antibacterial activity against Mycobacterium tuberculosis H37Ra assessed as moxifloxacin MIC at 3 to 50 uM measured after 7 days by resazurin reduction microplate assay based checkerboard assay; format: functional; details: 168 h, dose 3-50 µM, time 7 day
[8] = molecular target: T1, N-acetyltransferase Eis; assay: Inhibition of Mycobacterium tuberculosis H37Rv Eis protein using kanamycin as substrate preincubated for 10 mins followed by AcCoA addition and measured every 30 secs for 30 mins
[9] = test system: Mycobacterium tuberculosis; assay: Antibacterial activity against Mycobacterium tuberculosis H37Ra measured after 7 days in presence of isoniazid by resazurin reduction microplate assay based checkerboard assay; format: functional; details: 168 h, time 7 day
[10] = test system: Mycobacterium tuberculosis; assay: Additive antibacterial activity against Mycobacterium tuberculosis H37Ra assessed as fractional inhibitory concentration index at 3 to 50 uM measured after 7 days in presence of moxifloxacin by resazurin reduction microplate assay based checkerboard assay; format: functional; details: dose 3-50 µM; time 7 day
[11] = test system: Mycobacterium tuberculosis; assay: Additive antibacterial activity against Mycobacterium tuberculosis H37Ra assessed as fractional inhibitory concentration index at 3 to 50 uM measured after 7 days in presence of ethambutol by resazurin reduction microplate assay based checkerboard assay; format: functional; details: dose 3-50 µM; time 7 day
[12] = test system: Mycobacterium tuberculosis; assay: Antibacterial activity against Mycobacterium tuberculosis H37Ra measured after 7 days in presence of moxifloxacin by resazurin reduction microplate assay based checkerboard assay; format: functional; details: 168 h, time 7 day
[13] = test system: Mycobacterium tuberculosis; assay: Additive antibacterial activity against Mycobacterium tuberculosis H37Ra assessed as fractional inhibitory concentration index at 3 to 50 uM measured after 7 days in presence of isoniazid by resazurin reduction microplate assay based checkerboard assay; format: functional; details: dose 3-50 µM; time 7 day
[14] = test system: Mycobacterium tuberculosis; assay: Additive antibacterial activity against Mycobacterium tuberculosis H37Ra assessed as rifampicin MIC at 3 to 50 uM measured after 7 days by resazurin reduction microplate assay based checkerboard assay; format: functional; details: 168 h, dose 3-50 µM, time 7 day
[15] = test system: Mycobacterium tuberculosis; assay: Antibacterial activity against Mycobacterium tuberculosis H37Ra measured after 7 days in presence of ethambutol by resazurin reduction microplate assay based checkerboard assay; format: functional; details: 168 h, time 7 day
[16] = test system: Mycobacterium tuberculosis; assay: Antibacterial activity against Mycobacterium tuberculosis H37Ra measured after 7 days in presence of rifampicin by resazurin reduction microplate assay based checkerboard assay; format: functional; details: 168 h, time 7 day
[17] = test system: Mycobacterium tuberculosis; assay: Additive antibacterial activity against Mycobacterium tuberculosis H37Ra assessed as fractional inhibitory concentration index at 3 to 50 uM measured after 7 days in presence of rifampicin by resazurin reduction microplate assay based checkerboard assay; format: functional; details: dose 3-50 µM; time 7 day
[18] = molecular target: T2, N-acetyltransferase Eis (Mycobacterium tuberculosis (strain ATCC 25618 / H37Rv)); assay: Binding affinity to Mycobacterium tuberculosis H37Rv Eis protein assessed as gibbs free energy
[19] = molecular target: T1, N-acetyltransferase Eis; assay: Competitive inhibition of Mycobacterium tuberculosis H37Rv Eis protein using varying concentrations of kanamycin as substrate assessed as inhibition constant by Lineweaver-Burk plot analysis
[20] = compound: COc1ccc(C(=O)CSc2nc3ccccc3c(=N)n2-c2ccccc2)cc1; assay: Competitive inhibition of Mycobacterium tuberculosis H37Rv Eis protein using varying concentrations of kanamycin as substrate assessed as Vmax at 11 uM by Lineweaver-Burk plot analysis (reference value: 119 +/- 11 microM)
[21] = compound: COc1ccc(C(=O)CSc2nc3ccccc3c(=N)n2-c2ccccc2)cc1; assay: Competitive inhibition of Mycobacterium tuberculosis H37Rv Eis protein using varying concentrations of kanamycin as substrate assessed as Km at 15 uM by Lineweaver-Burk plot analysis (reference value: 448 +/- 99 microM)
[22] = compound: COc1ccc(C(=O)CSc2nc3ccccc3c(=N)n2-c2ccccc2)cc1; assay: Competitive inhibition of Mycobacterium tuberculosis H37Rv Eis protein using varying concentrations of kanamycin as substrate assessed as Km at 6.25 uM by Lineweaver-Burk plot analysis (reference value: 448 +/- 99 microM)
[23] = compound: COc1ccc(C(=O)CSc2nc3ccccc3c(=N)n2-c2ccccc2)cc1; assay: Competitive inhibition of Mycobacterium tuberculosis H37Rv Eis protein using varying concentrations of kanamycin as substrate assessed as Vmax at 15 uM by Lineweaver-Burk plot analysis (reference value: 119 +/- 11 microM)
[24] = compound: COc1ccc(C(=O)CSc2nc3ccccc3c(=N)n2-c2ccccc2)cc1; assay: Competitive inhibition of Mycobacterium tuberculosis H37Rv Eis protein using varying concentrations of kanamycin as substrate assessed as Vmax at 6.25 uM by Lineweaver-Burk plot analysis (reference value: 119 +/- 11 microM)
[25] = compound: COc1ccc(C(=O)CSc2nc3ccccc3c(=N)n2-c2ccccc2)cc1; assay: Competitive inhibition of Mycobacterium tuberculosis H37Rv Eis protein using varying concentrations of kanamycin as substrate assessed as Km at 11 uM by Lineweaver-Burk plot analysis (reference value: 448 +/- 99 microM)

Molecule | MIC [1] | further results
C=CCn1c(SCC(=O)c2ccc(OC)cc2)nc2ccccc2c1=N | > 200 µM | –
COc1c(N2C[C@@H]3CCCN[C@@H]3C2)c(F)cc2c(=O)c(C(=O)O)cn(C3CC3)c12 [MOXIFLOXACIN] | 0.2 µM (≈ 0.0803 µg/mL) | –
C=CCn1c(SCC(=O)c2ccccc2)nc2sc3c(c2c1=O)CCCC3 | > 200 µM | –
C=CCn1c(SCC(=O)c2ccc(Cl)c(Cl)c2)nc2sc3c(c2c1=O)CCCC3 | > 200 µM | –
Cc1cc(C)c2c(C(=O)NC3CCCCC3)c[nH]c2c1 | – | MIC [2]: ≥ 250 ng/mL; MIC [3]: 4 ng/mL (≈ 0.0148 µM)
N#C/C(=C\c1c[nH]c2ccccc12)C(=O)NCCCc1ccccc1 | > 200 µM | –
Cc1ccc(C(=O)CSc2nc3sc4c(c3c(=O)n2Cc2ccccc2)CCCC4)cc1 | > 200 µM | –
N#C/C(=C\c1c[nH]c2ccccc12)C(=O)N1CCSCC1 | > 200 µM | –
Cc1ccc2[nH]cc(/C=C(\C#N)C(=O)NCCCc3ccccc3)c2c1 | > 200 µM | –
CCCCOC(=O)/C(C#N)=C/c1c[nH]c2ccccc12 | > 200 µM | –
O=C(CSc1nc2sc3c(c2c(=O)n1-c1ccccc1)CCCC3)c1ccc(Cl)cc1 | > 200 µM | –
O=C(CSc1nc2sc3c(c2c(=O)n1-c1ccccc1)CCCC3)c1ccc(Cl)c(Cl)c1 | > 200 µM | –
C=CCn1c(SCC(=O)c2ccc(Cl)cc2)nc2ccccc2c1=N | > 200 µM | –
CC[C@@H](CO)NCCN[C@@H](CC)CO [ETHAMBUTOL] | 8 µM (≈ 1.63 µg/mL) | –
N#C/C(=C\c1c[nH]c2ccccc12)C(=O)N1CCCC1 | > 200 µM | –
N=c1c2ccccc2nc(SCC(=O)c2ccc(Cl)cc2)n1-c1ccccc1 | > 200 µM | –
CN1CCCC(CSc2nc(N)c3c4c(sc3n2)CCCC4)C1 (stereo unspecified) | – | IC50 [4]: 0.15 µM
O=C(CSc1nc2ccccc2c(=O)n1-c1ccccc1)c1ccc(Cl)cc1 | 200 µM (≈ 81.4 µg/mL) | –
C=CCn1c(SCC(=O)c2ccc(C)cc2)nc2sc3c(c2c1=O)CCCC3 | > 200 µM | –
C=CCn1c(SCC(=O)c2ccc(Cl)cc2)nc2sc3c(c2c1=O)CCCC3 | > 200 µM | –
N#C/C(=C\c1c[nH]c2ccccc12)C(=O)NCCN1CCCCC1 | 200 µM (≈ 64.5 µg/mL) | –
O=C(CSc1nc2sc3c(c2c(=O)n1Cc1ccccc1)CCCC3)c1ccc(Cl)c(Cl)c1 | > 200 µM | –

Molecule | MIC [1] | further results
O=C(CSc1nc2sc3c(c2c(=O)n1Cc1ccccc1)CCCC3)c1cccc(Cl)c1 | > 200 µM | –
N#C/C(=C\c1c[nH]c2ccccc12)C(=O)N1CCOCC1 | > 200 µM | –
CCOC(=O)/C(C#N)=C/c1c[nH]c2ccccc12 | > 200 µM | –
N#C/C(=C\c1c[nH]c2ccccc12)C(=O)Nc1ccccc1 | > 200 µM | –
O=C(CSc1nc2sc3c(c2c(=O)n1Cc1ccccc1)CCCC3)c1cccc(O)c1 | 200 µM (≈ 92.5 µg/mL) | –
COc1ccc(C(=O)CSc2nc3ccccc3c(=N)n2-c2ccccc2)cc1 | 50 µM (≈ 20.1 µg/mL) | MIC [5]: 8 µM; MIC [6]: 0.23 µM; MIC [7]: 0.4 µM; IC50 [8]: 11 µM; MIC [9]: 50 µM; fractional inhibitory concentration index (FICI) [10]: 3; fractional inhibitory concentration index (FICI) [11]: 2; MIC [12]: 50 µM; fractional inhibitory concentration index (FICI) [13]: 2; MIC [14]: 0.01 µM; MIC [15]: 50 µM; MIC [16]: 50 µM; fractional inhibitory concentration index (FICI) [17]: 2; deltaG [18]: -7.04 kcal/mol; Ki [19]: 14.4 µM
N#C/C(=C\c1c[nH]c2ccccc12)C(=O)NCCc1ccccc1 | > 200 µM | –
CO[C@H]1/C=C/O[C@@]2(C)Oc3c(C)c(O)c4c(O)c(c(/C=N/N5CCN(C)CC5)c(O)c4c3C2=O)NC(=O)/C(C)=C\C=C\[C@H](C)[C@H](O)[C@@H](C)[C@@H](O)[C@@H](C)[C@H](OC(C)=O)[C@@H]1C [RIFAMPIN] | 0.01 µM (≈ 0.00823 µg/mL) | –
O=C(CSc1nc2ccccc2c(=O)n1-c1ccccc1)c1ccccc1 | 200 µM (≈ 74.5 µg/mL) | –
N#CCC(=O)NC(=O)/C(C#N)=C/c1c[nH]c2ccccc12 | > 200 µM | –
Cc1ccc(C(=O)CSc2nc3sc4c(c3c(=O)n2-c2ccccc2)CCCC4)cc1 | > 200 µM | –
NNC(=O)c1ccncc1 [ISONIAZID] | 0.23 µM (≈ 0.0315 µg/mL) | –
CC(C)OC(=O)/C(C#N)=C/c1c[nH]c2ccccc12 | 100 µM (≈ 25.4 µg/mL) | –
N#C/C(=C\c1c[nH]c2cccc([N+](=O)[O-])c12)C(=O)NCCCc1ccccc1 | > 200 µM | –
Cc1cc(C)c2c(C(=O)NC3CCCCCC3)c[nH]c2c1 | – | MIC [2]: ≥ 250 ng/mL; MIC [3]: 4 ng/mL (≈ 0.0141 µM)
C=CCn1c(SCC(=O)c2ccccc2)nc2ccccc2c1=N | 200 µM (≈ 67.1 µg/mL) | –
N#C/C(=C\c1c[nH]c2ccccc12)C(=O)NCc1ccccc1 | > 200 µM | –
C=CCn1c(SCC(=O)c2ccccc2)nc2ccccc2c1=O | 200 µM (≈ 67.3 µg/mL) | –
COc1ccc(C(=O)CSc2nc3sc4c(c3c(=O)n2-c2ccccc2)CCCC4)cc1 | > 200 µM | –
O=C(CSc1nc2sc3c(c2c(=O)n1Cc1ccccc1)CCCC3)c1ccccc1 | > 200 µM | –
COC(=O)/C(C#N)=C/c1c[nH]c2ccccc12 | > 200 µM | –
B1 | – | Vmax [20]: 108 µM/s; Km [21]: 632 µM; Km [22]: 717 µM; Vmax [23]: 94 µM/s; Vmax [24]: 112 µM/s; Km [25]: 721 µM
